This is an account of results in patent US5807852A, “Tricyclic amide and urea compounds useful for inhibition of G-protein function and for treatment of proliferative diseases” (Schering Corporation, priority 1995, dated 1998).

The target in this assay is T1, farnesyl protein transferase (FPT) (Rattus norvegicus, UniProt Q02293+Q04631).
T1 construct: were partially purified from rat brain by ammonium sulfate fractionation; from tissue; host or cells: rat brain
Briefly: Inhibition of farnesyl protein transferase (FPT), in vitro enzyme assay, Ras-CVLS farnesylation. Format: biochemical, rat (partially purified rat brain). To be noted: Table 22.

SMILES strings stand for the structures.

Protocol: Two forms of val^12 -Ha-Ras protein were prepared as substrates for these enzymes, differing in their carboxy terminal sequence. One form terminated in cysteine-valine-leucine-serine (Ras-CVLS) the other in cystein-valine-leucine-leucine (Ras-CVLL). Ras-CVLS is a substrate for the famesyl protein transferase while Ras-CVLL is a substrate for geranylgeranyl protein transferase I. The cDNAs encoding these proteins were constructed so that the proteins contain an amino-terminal extension of 6 histidine residues. Both proteins were expressed in Escherichia coli and purified using metal chelate affinity chromatography. The radiolabelled isoprenyl pyrophosphate substrates, [^3 H]farnesyl pyrophosphate and [^3 H]geranylgeranyl pyrophosphate, were purchased from DuPont/New England Nuclear.
The reaction was allowed to proceed for 30 minutes at room temperature and then stopped with 0.5 ml of 4% sodium dodecyl sulfate (SDS) followed by 0.5 ml of cold 30% trichloracetic acid (TCA). Samples were allowed to sit on ice for 45 minutes and precipitated Ras protein was then collected on GF/C filter paper mats using a Brandel cell harvester. Filter mats were washed once with 6% TCA, 2% SDS and radioactivity was measured in a Wallac 1204 Betaplate BS liquid scintillation counter. Percent inhibition was calculated relative to the DMSO vehicle control.

In turn, `CSCC[C@H](N)C(=O)N1CCC(CC(=O)N2CCN(C3c4ccc(Cl)cc4CCc4cccnc43)CC2)CC1` (stereo partly drawn) [Example 433-B] registered a concentration for half-maximal inhibition (IC50) of 1890 nM.
Next, `CSc1cc(CC(=O)N2CCC(C3c4ccc(Cl)cc4CCc4cc(Br)cnc43)CC2)ccn1` (stereo not drawn) [Example 410-V]: 1170 nM; `CS(=O)(=O)c1cc(CC(=O)N2CCC(C3c4ccc(Cl)cc4CCc4cc(Br)cnc43)CC2)ccn1` (stereo not drawn) [Example 410-W]: 1160 nM.
To `O=C(Cc1ccnc(-n2ccnc2)c1)N1CCC(C2c3ccc(Cl)cc3CCc3cc(Br)cnc32)CC1` (stereo not drawn) [Example 410-T] belongs 1800 nM; to `C[C@H](N)C(=O)N1CCC(CC(=O)N2CCN(C3c4ccc(Cl)cc4CCc4cccnc43)CC2)CC1` (stereo partly drawn) [Example 433], 2500 nM; to `CN1CCN(c2cc(CC(=O)N3CCC(C4c5ccc(Cl)cc5CCc5cc(Br)cnc54)CC3)ccn2)CC1` (stereo not drawn) [Example 410-U], 5000 nM.

By IC50 is commonly meant the concentration needed to halve the response being measured.
